Test results taken from PubChem BioAssay AID1117319 (Southern Research Institute, 2015).
Records with an inconclusive call do not appear.

biological target: Virion infectivity factor (Human immunodeficiency virus type 1 group M subtype B (isolate BH10)) + Virion infectivity factor (Human immunodeficiency virus type 1 group M subtype B (isolate BRU/LAI)) + Virion infectivity factor (Human immunodeficiency virus type 1 group M subtype B (isolate PCV12)) + Virion infectivity factor (Human immunodeficiency virus type 1 group M subtype B (isolate HXB2)) + DNA dC->dU-editing enzyme APOBEC-3G (Homo sapiens) (UniProt P69720+P69721+P69722+P69723+Q9HC16); assay: HIV-1 Vif–A3G interaction blockers – biochemical, TR-FRET, GST-Vif 1-94, biotin-A3G peptide, dose response retest, primary screen (AID 1117319); conditions: TR-FRET GST-Vif / biotin-A3G peptide binding;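 also: Vif residues 1-94 fused to GST binding biotinylated APOBEC3G peptide 110-148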

Row | SMILES | IC50
1 | Cc1cc(C(=O)NNC(=O)/C=C/c2ccco2)c(C)o1 | 13.3 µM
2 | O=C1NN(c2ccc(Cl)cc2)C(=O)/C1=C\c1ccc(-c2cccc(C(=O)O)c2)o1 | 5.76 µM
3 | N#Cc1c(-c2ccco2)cc(-c2ccccc2)[nH]c1=O | 14 µM
4 | COc1ccc(NC(=O)CC2Nc3cccc4cccc(c34)NC2=O)cc1 (stereo unspecified) | 1.21 µM
5 | O=C1NC(c2cccc(Br)c2)=N/C1=C\c1ccco1 | 9.01 µM
6 | CCOC(=O)c1c(NC(=O)c2cccs2)sc(C)c1C | 32.9 µM
7 | CCOC(=O)C1CCCN(c2ncnc3c2cnn3-c2ccc(Cl)cc2)C1 (stereo unspecified) | 36 µM
8 | CCOC(=O)C1=C(N)n2c(s/c(=C/c3ccco3)c2=O)=C(C(=O)OC)C1c1ccco1 (stereo unspecified) | 2.17 µM
9 | COc1ccc(Cl)cc1NC(=O)CCS(=O)(=O)c1ccc(Br)cc1 | 8.09 µM
10 | O=C1/C(=C/c2ccco2)Oc2c1ccc(O)c2CN1CCCCC1 | 1.36 µM
11 | CN(C)N1C(N)=C(C#N)C(c2cccnc2)C2=C1CCCC2=O (stereo unspecified) | 11.4 µM
12 | O=C(COc1ccccc1Cl)c1ccc[nH]1 | 2.91 µM
13 | O=C(NCc1ccccn1)c1coc(=O)c(Br)c1 | 58.6 µM
14 | Cc1ccc(C=C2C(Cl)=C(Cl)C(Cl)=C2Cl)cc1 | 2.1 µM
15 | O=C(c1cc(-c2ccco2)on1)N1CCN(c2ccccc2)CC1 | 31.2 µM
16 | COC(=O)c1ccc(C(=O)OC)c(NC(=O)Cc2cccs2)c1 | 4.22 µM
17 | CCC(C)Cn1c(O)cc2nn(-c3nc4ccccc4s3)c(=O)c-2c1C (stereo unspecified) | 2.65 µM
18 | Cc1cccc(C)c1NC(=O)CSc1nnc(-c2ccco2)c(-c2ccco2)n1 | 2.05 µM
19 | CNc1cccccc1=S | 0.51 µM
20 | CSc1nc(N2CCOCC2)c2c3c(sc2n1)CCC3 | 42.1 µM
21 | COc1ccc(-c2cc(C(=O)N/N=C/c3ccc(OC)c(COCC(F)(F)C(F)F)c3)c3ccccc3n2)c(OC)c1 | 26.2 µM
22 | Cc1ccc(N2C(=O)NC(=O)/C(=C\C=C\c3ccco3)C2=O)cc1 | 8.48 µM
23 | NC(=O)c1cc(N)ccc1N1CCCC1 | 1.12 µM

Row | SMILES | IC50
24 | O=C(c1ccc(=O)oc1)N1CCCc2ccccc21 | 38.3 µM
25 | COCCNC(=O)c1ccc(CS(=O)(=O)c2c(Cl)cccc2Cl)o1 | 39.9 µM
26 | Nc1cc(C(=O)O)ccc1N1CCCCC1 | 15 µM
27 | CCCc1cc(=O)oc2cc(C)c(CN3CCCC3)c(O)c12 | 3.46 µM
28 | CCOc1cc(N2CCOCC2)c(OCC)cc1NC(C)C(=O)N1CCN(CC)CC1 (stereo unspecified) | 23.9 µM
29 | N#CC(C(=O)NCc1ccco1)c1nc2ccccc2nc1N1CCOCC1 (stereo unspecified) | 51.7 µM
30 | NC(=O)C[C@@H]1N[C@]2(C(=O)Nc3ccccc32)[C@@H]2C(=O)N(c3cc(C(F)(F)F)ccc3Cl)C(=O)[C@H]12 | 55.5 µM
31 | Cc1ccccc1-c1nc(CN2CCC(C(=O)N3CCN(c4ccccn4)CC3)CC2)c(C)o1 | 43.3 µM
32 | Cc1c(C(=O)N2CCN(c3ccccc3F)CC2)sc2nc(-c3ccccc3)cn12 | 93 µM
33 | COc1ccc2c(c1)C(=O)c1ccccc1CO2 | 52.2 µM
34 | CN(C1=C(NC(=O)c2ccc(Cl)cc2)C(=O)c2ccccc2C1=O)c1ccccc1 | 52.4 µM
35 | Nc1nc(Sc2ccc([N+](=O)[O-])c3nonc23)c2[nH]cnc2n1 | 10.9 µM
36 | COc1cc(/C=C2\CC/C(=C\c3cc(OC)c(O)c(OC)c3)C2=O)cc(OC)c1O | 1.56 µM
37 | CC[n+]1c(/C=C2/C=C(C)CC(C)(C)C2)sc2ccc(OC)cc21 | 21.7 µM
38 | CCC(C)C(NC(=O)[C@@H](NC(=O)c1ccccc1F)C(C)C)C(=O)OC (stereo partly specified) | 5.83 µM
39 | COc1ccc(-c2nc3oc4cc(OC)ccc4c(=O)c3c(=O)n2Cc2ccco2)cc1 | 98.7 µM
40 | COc1ccc(C2=NOC(C(=O)NCc3cccs3)C2)cc1OC (stereo unspecified) | 89.8 µM
41 | NS(=O)(=O)c1ccc(N=Nc2ccc(=O)[nH]c2O)cc1 | 5.22 µM
42 | O=c1cc(-c2ccc(O)cc2)oc2c(O)c(O)c(O)c(O)c12 | 22.1 µM
43 | COC(=O)CSc1nnc(CNC(=O)Cc2ccccc2)n1-c1ccccc1OC | 77.7 µM
44 | O=c1c2cc(N3CCOCC3)ccc2[nH]c(=S)n1Cc1ccco1 | 7.24 µM
45 | Cc1ccc(-n2nc(-c3ccc(N)cc3)cc2N)cc1 | 33.5 µM
46 | Cc1cc(C(=O)COC(=O)c2cc(O)c3ccccc3c2O)c(C)n1CC1CCCO1 (stereo unspecified) | 6.92 µM

Row | SMILES | IC50
47 | O=C(CCS(=O)(=O)c1ccc(Br)cc1)NCCc1ccccc1 | 28.9 µM
48 | CC(C)NC(=O)c1cc(-c2ccco2)nn1-c1ccc(Cl)cc1 | 13.5 µM
49 | Cc1cc(C)c(C(=O)/C=C/c2ccco2)c(=O)[nH]1 | 8.81 µM
50 | CCc1c(C)sc(NC(=O)OC)c1C(=O)N1CCCCC1 | 42.7 µM
51 | O=C(O)c1ccc(Sc2nnnn2-c2ccccc2)c([N+](=O)[O-])c1 | 89.9 µM
52 | CC(C)OP(=O)(OC(C)C)C(O)c1ccc(N(C)C)cc1 (stereo unspecified) | 75.9 µM
53 | NC(=O)c1ccc(N2CCN(c3ccc(O)cc3)CC2)c([N+](=O)[O-])c1 | 7.08 µM
54 | O=C(O)c1ccc(-n2cccc2/C=C2/NC(=O)N(c3cccc(Cl)c3)C2=O)cc1 | 1.71 µM
55 | O=c1cc(-c2ccc(O)c(O)c2)oc2cc(O)c(C3OC(CO)C(O)C(O)C3O)c(O)c12 (stereo unspecified) | 12.7 µM
56 | Cc1nn(-c2ccccn2)c2c1C(=O)C(Br)CC2 (stereo unspecified) | 3.41 µM
57 | Cc1ccc(C)n1-c1cccc(C(=O)O)c1 | 0.72 µM
58 | CCOC(=O)C1=C(C)N=C2SC(C(=O)OC)=CC(=O)N2C1c1cc(OC)c(OC)c(OC)c1 (stereo unspecified) | 11 µM
59 | COc1cc(NCCCNC(C)C)c2nccc(C)c2c1 | 52.8 µM
60 | CN(C)c1ccc(N2C(=O)CSC2=S)cc1 | 8.37 µM
61 | O=C(O)CCCCC1CCSS1 (stereo unspecified) | 7.67 µM
62 | CCOC(=O)C1=C(Cc2ccc(Cl)cc2)C(=O)c2ccccc2C1=O | 34.7 µM
63 | Cc1oc(/N=C/c2cccc3ccccc23)c(C#N)c1C | 52.7 µM
64 | O=C(CSc1nc2cc([N+](=O)[O-])ccc2n1-c1ccccc1)NCc1ccc2c(c1)OCO2 | 46.6 µM
65 | CCn1c(SCC(=O)OC)nc2sc3c(c2c1=O)CCC3 | 12.7 µM
66 | COC(=O)C1=C(C)NC(=O)/C1=C\c1ccco1 | 6.12 µM
67 | O/C=c1\ccc2cccc3nc(C(F)(F)F)nc1c23 | 2.79 µM
68 | Oc1ccc(NCc2cccc(OCc3ccccc3)c2)cc1 | 2.14 µM
69 | O=C1NC(=O)C(=Cc2ccco2)C(=O)N1 | 19.9 µM

Row | SMILES | IC50
70 | O=[N+]([O-])c1cc(/C=N\Nc2nccs2)ccc1O | 1.62 µM
71 | O=C(Nc1nc(-c2ccco2)c(-c2ccco2)s1)C1CCC1 | 1.93 µM
72 | C=C(C)C(=O)Nc1cccc(C2=NOC3(C2)C[C@@H](C(N)=O)N(C(=O)CCCCC)C3)c1 (stereo partly specified) | 0.22 µM
73 | COc1ccc2c(c1)c1ccc3c(c1n2C)C(=O)C=CC3=O | 2.42 µM
74 | COC/C=C/C1=CC2=CC(=O)C(C)(OC(=O)CCC(=O)OC)C(=O)C2=CO1 (stereo unspecified) | 1.35 µM
75 | Cn1cccc1/C=C1\CCC/C(=C\c2cccn2C)C1=O | 3.09 µM
76 | COc1ccc(C(=O)N/N=C/C23CC[C@@H](O)CC2(O)CC[C@@H]2[C@@H]3CCC3(C)C(C4=CC(=O)OC4)CCC23O)cc1 (stereo partly specified) | 86.3 µM
77 | COc1ccc(NC(=O)c2ccccc2NC(=O)CSc2ccc(Cl)cc2)cc1 | 57.7 µM
78 | Cc1cc2c(=Cc3ccc(N(C)C)cc3)c3ccccc3n2[n+]1C | 16.9 µM
79 | C=C(C)C(=O)Nc1ccc2c(c1)OCCOCCOCCO2 | 1.89 µM
80 | O=C1C(O)CC2c3ccccc3CC3(CCCC3)N12 (stereo unspecified) | 50.6 µM
81 | O=C(Cn1cnc2c(nnn2Cc2ccc(F)cc2)c1=O)NCc1ccco1 | 94.6 µM
82 | Cc1ccc(N(CC(=O)NCCSCc2ccco2)S(=O)(=O)c2ccc(F)cc2)cc1 | 10.9 µM
83 | CSc1nc(NCCOCCO)c2sc3nc(-c4ccco4)c4c(c3c2n1)CCC4 | 1.41 µM
84 | O=C(c1cccc(-n2cccc2)c1)N1CCN(S(=O)(=O)c2ccccc2)CC1 | 17.3 µM
85 | CN(CC(=O)Nc1cccc(F)c1)C(=O)c1cccc(-n2cccc2)c1 | 8.08 µM
86 | O=C1NC(=O)N(Cc2ccc(F)cc2)C(=O)/C1=C\C=C\c1ccco1 | 19.2 µM
87 | CCOC(=O)C1CCCC12Nc1cccc3cccc(c13)N2 (stereo unspecified) | 3.74 µM
88 | CN1CCc2c(sc3c2c(NCc2ccco2)nc2nnnn23)C1 | 16.2 µM
89 | C(=C\c1ccco1)/c1ccc2ccccc2n1 | 5.09 µM
90 | CC1=CC(C)(C)N2C(=O)C(=Nc3ccc(O)cc3)c3cccc1c32 | 3.5 µM
91 | COc1cccc(CNC(=O)Cn2c(=O)oc3ccccc32)c1OC | 85.7 µM
92 | O=C(O)c1cc2cccc(S(=O)(=O)N3CCOCC3)c2cc1O | 38 µM

Row | SMILES | IC50
93 | COc1cc2c(cc1OC)C(C)N(C(=O)c1cc3n(n1)C(C(F)(F)F)CC(c1ccco1)N3)CC2 (stereo unspecified) | 27.8 µM
94 | CC(=O)Nc1ccc(NC(=O)CSCc2cnn(-c3ccccc3)c2-n2cccc2)cc1 | 25.9 µM
95 | CC1(OC(=O)C2CCCC2)C(=O)C=C2C=C(c3ccsc3)OC=C2C1=O (stereo unspecified) | 8.75 µM
96 | N=C1/C(=C/c2ccc(Br)o2)C(=O)N=C2SC(CC(=O)N3CCCC3)=NN12 | 27.8 µM
97 | CCOC(=O)c1cnn2c(N)c(C#N)nnc12 | 21.4 µM
98 | CCOC(=O)Cn1nnnc1C(C(C)C)N(Cc1cc2c(C)cc(C)cc2[nH]c1=O)C1CCCC1 (stereo unspecified) | 46 µM
99 | O=C(N/N=C/c1cccnc1)c1cc(O)c(O)c(O)c1 | 21.7 µM
100 | O=C(CCCN1C(=O)/C(=C\c2ccco2)SC1=S)Nc1cccc2ccccc12 | 2.56 µM
101 | O=C(O)COc1ccc2c(c1)O/C(=C\c1ccco1)C2=O | 22.5 µM
102 | C[C@H]1c2cccc(O)c2C(O)=C2C(=O)[C@]3(O)C(O)=C(C(N)=O)C(=O)[C@@H](N(C)C)[C@@H]3[C@@H](O)[C@@H]21 | 13.6 µM
103 | COC1=C(Br)C(=O)c2nc(C)ccc2C1=O | 13.6 µM
104 | COc1ccc2c(c1)n([O-])c1c([n+]2=O)CCC1 | 5.16 µM
105 | Cn1cnnc1SC/C(O)=C(\C#N)c1nc2ccccc2[nH]1 | 19.7 µM
106 | CCCn1c(CNc2ccccc2O)nc2ccccc21 | 53 µM
107 | O=C1CC(c2ccco2)CC(O)=C1C=NCC1CCNCC1 (stereo unspecified) | 13.5 µM
108 | O=C(NNC(=O)c1ccccc1O)c1ccc(-c2ccc([N+](=O)[O-])cc2)o1 | 32.3 µM
109 | O=C(CCCCCN1C(=O)CCC1=O)Nc1ccc(Cl)c(C(F)(F)F)c1 | 3.93 µM
110 | CNc1c(C(=O)O)ccc2c1C(=O)c1ccccc1C2=O | 25 µM
111 | COc1cccc(C2NC(=O)NC(O)(C(F)(F)F)C2C(=O)c2cccnc2)c1OC (stereo unspecified) | 47.1 µM
